The supplement of paper PMC10307832

Experiments:
Experiment in all cases: relative viability (nuclei count vs DMSO), 5 days (fraction); higher = more cells survive
Mirin + Linsitinib = compound: N=C1NC(=O)/C(=C/c2ccc(O)cc2)S1 [Mirin] + C[C@]1(O)C[C@@H](c2nc(-c3ccc4ccc(-c5ccccc5)nc4c3)c3c(N)nccn32)C1 [Linsitinib] (partner 1 µM)
Procedure, shortened: (§1)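 Lung cancer cell lines were seeded in 1536-well plates and dosed by pin tool the next day, with either a single drug or a fixed anchor-drug dose combined with five library-drug doses (not always all listed) spaced in √10 steps. Five days later, one step fixed the cells and stained their nuclei (final 0.05% Triton X-100, 1% formaldehyde, 1 ug/ml Hoechst), and nuclei were counted on 4× images. Relative viability is the nuclei count in treated wells divided by the count in vehicle wells, and each value is the median of duplicate plates.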

Mirin + Trametinib = compound: N=C1NC(=O)/C(=C/c2ccc(O)cc2)S1 [Mirin] + CC(=O)Nc1cccc(-n2c(=O)n(C3CC3)c(=O)c3c(Nc4ccc(I)cc4F)n(C)c(=O)c(C)c32)c1 [Trametinib] (partner 0.02 µM)
Procedure, shortened: as §1

[1] = compound: CCC1=CN=CN=C1N2CCN(CC2)CC3=NC4=C(N3)C=C(C=C4)C(F)(F)F + CC1(C)CCC(c2ccc(Cl)cc2)=C(CN2CCN(c3ccc(C(=O)NS(=O)(=O)c4ccc(N[C@H](CCN5CCOCC5)CSc5ccccc5)c(S(=O)(=O)C(F)(F)F)c4)cc3)CC2)C1 [Navitoclax] (partner 0.5 µM)
Procedure, shortened: as §1

[2] = compound: CCn1c(-c2nonc2N)nc2cnc(Oc3cccc(NC(=O)c4ccc(OCCN5CCOCC5)cc4)c3)cc21 + COc1cccc2cc(-c3nc([C@H]4CC[C@H](C(=O)O)CC4)n4ncnc(N)c34)[nH]c12 [OSI-027] (partner 0.5 µM)
Procedure, shortened: as §1

Cell Line	relative viability (Mirin + Linsitinib; first compound 0.25 µM)	relative viability (Mirin + Linsitinib; first compound 0.7906 µM)	relative viability (Mirin + Linsitinib; first compound 2.5 µM)	relative viability (Mirin + Linsitinib; first compound 7.906 µM)	relative viability (Mirin + Linsitinib; first compound 25 µM)	relative viability (Mirin + Trametinib; first compound 0.25 µM)	relative viability (Mirin + Trametinib; first compound 0.7906 µM)	relative viability (Mirin + Trametinib; first compound 2.5 µM)	relative viability (Mirin + Trametinib; first compound 7.906 µM)	relative viability (Mirin + Trametinib; first compound 25 µM)	relative viability ([1]; first compound 0.04 µM)	relative viability ([1]; first compound 0.1265 µM)	relative viability ([1]; first compound 0.4 µM)	relative viability ([1]; first compound 1.265 µM)	relative viability ([1]; first compound 4 µM)	relative viability ([2]; first compound 0.04 µM)	relative viability ([2]; first compound 0.1265 µM)	relative viability ([2]; first compound 0.4 µM)	relative viability ([2]; first compound 1.265 µM)	relative viability ([2]; first compound 4 µM)
HCC-827	0.959	0.972	0.949	0.935	1.18	0.529	0.471	0.584	0.607	0.547	1.08	1.03	1.03	0.903	0.937	0.961	0.855	0.78	0.707	0.756
NCI-H661	0.432	0.58	0.613	0.451	0.414	0.59	0.722	0.628	0.482	0.575	–	–	–	–	–	0.562	0.593	0.445	0.467	0.33
CAL-12T	0.856	0.726	0.825	0.856	0.838	0.336	0.373	0.405	0.357	0.32	1.26	1.28	1.21	1.23	1.17	0.857	0.826	0.43	0.603	0.469
NCI-H2342	–	–	–	–	–	0.805	0.853	0.803	–	0.751	–	–	–	–	–	0.716	0.696	0.535	0.487	0.577
SW 900	–	–	–	–	–	0.95	0.76	0.826	0.971	0.653	–	–	–	–	–	0.553	0.557	0.421	0.559	0.578
IA-LM	0.754	0.584	0.789	–	0.87	–	–	–	–	–	0.733	0.806	0.646	0.654	0.695	–	–	–	–	–
EPLC-272H	1.1	–	1.16	0.978	0.831	0.308	–	0.281	0.3	0.317	0.973	1.05	1.11	1.07	1.31	0.363	0.339	0.246	0.234	0.247
A-427	1.11	–	1.19	1.19	1.2	0.734	0.647	0.718	0.677	0.706	0.873	0.9	0.915	0.872	0.826	0.585	0.545	0.328	0.411	0.352
NCI-H650	0.942	–	0.941	–	0.956	1.08	0.93	0.938	0.968	0.88	–	–	–	–	–	0.601	0.39	0.254	0.238	0.265
NCI-H1975	0.925	0.911	1.07	0.989	1.04	0.379	0.337	0.365	0.337	0.55	1.15	1.08	1.06	0.879	0.931	0.616	0.465	0.322	0.196	0.208
